Test results reported in ChEMBL document CHEMBL1201862, “PubChem BioAssay data set” (2004).
The source made the active and inactive calls.

Tests used:
[1] = target: Heat shock protein HSP 90-alpha (Homo sapiens, UniProt P07900); format: functional, organism-based
[2] = NIH-3T3 fibroblast cytotoxicity, dose response, cytotoxicity control, cell-based, fluorescence, Alamar Blue, secondary assay (AID 2327); format: functional;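 note: NIH-3T3 mouse fibroblasts cultured with fluconazole at 8 µg/mL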
BJ [3] = experiment: cells; format: functional, cell-based; details: Homo sapiens
[4] = target: ATP-dependent molecular chaperone HSP82 (Candida albicans (strain WO-1) (Yeast), UniProt C4YTQ8); experiment: loss of DOC-induced GRE-beta-galactosidase reporter signal, dose response, Hsp90 inhibitor project, S. cerevisiae, luminescence (AID 2400); format: functional, cell-based;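 note: beta-galactosidase luminescence from glucocorticoid response element reporter as proxy for Hsp90 function; inhibitor potency where signal loss means Hsp90 inhibition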
ATP-dependent molecular chaperone HSP82, sequence (C4YTQ8 whole entry): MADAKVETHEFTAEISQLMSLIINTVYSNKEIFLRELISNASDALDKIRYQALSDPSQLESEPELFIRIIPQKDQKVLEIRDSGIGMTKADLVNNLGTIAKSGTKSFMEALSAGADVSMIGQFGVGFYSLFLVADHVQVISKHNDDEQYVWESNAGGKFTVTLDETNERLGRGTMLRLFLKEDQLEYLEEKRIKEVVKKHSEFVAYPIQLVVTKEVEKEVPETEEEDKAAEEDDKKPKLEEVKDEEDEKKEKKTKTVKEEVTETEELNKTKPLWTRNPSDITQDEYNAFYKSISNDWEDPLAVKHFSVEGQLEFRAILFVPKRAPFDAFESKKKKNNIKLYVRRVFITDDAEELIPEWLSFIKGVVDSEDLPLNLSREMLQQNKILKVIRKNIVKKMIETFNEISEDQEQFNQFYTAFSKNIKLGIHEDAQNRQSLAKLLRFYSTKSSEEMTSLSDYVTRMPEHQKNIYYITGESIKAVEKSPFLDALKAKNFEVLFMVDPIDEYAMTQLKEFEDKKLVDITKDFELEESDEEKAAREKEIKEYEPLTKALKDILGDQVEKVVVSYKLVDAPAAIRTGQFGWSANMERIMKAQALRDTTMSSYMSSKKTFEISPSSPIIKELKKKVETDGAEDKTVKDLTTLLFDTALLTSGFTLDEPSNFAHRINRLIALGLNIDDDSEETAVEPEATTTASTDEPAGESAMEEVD

HEK293 [5] = experiment: cells; format: functional, cell-based; details: Homo sapiens
HEK293 [6] = experiment: cells; format: functional, cell-based; details: Homo sapiens; remark: listed apart in the source
HEK293 [7] = experiment: NOD2 signaling inhibitors in MDP-stimulated cells, cell-based, uHTS, luminescence (AID 2001); format: functional; details: Homo sapiens
BJ [8] = experiment: cytotoxicity toward BJ-TERT-LT-ST fibroblasts, dose response, cell-based, RAS-independent, luminescence (AID 1935); format: functional; details: Homo sapiens;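 note: BJ fibroblasts immortalized with TERT plus LT and ST oncogenes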
[9] = test system: Streptococcus sp. 'group A'; experiment: growth inhibition of control SK(-) GAS strain, dose response, counter-screen for streptokinase expression inhibitor project, luminescence, kanamycin, BacTiterGlo, confirmation (AID 1900); format: functional, organism-based
Streptococcus = experiment: Group A Streptococcus viability loss, dose response, counter-screen for streptokinase expression inhibitor project, luminescence, BacTiterGlo (AID 1915); format: functional, organism-based;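 note: potency for reduction of bacterial viability or growth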
[10] = cytotoxicity toward DRD oncogenic fibroblasts, dose response, cell-based, non-viral oncogenic, luminescence (AID 1934); format: functional; details: Homo sapiens
HEK293 [11] = experiment: cells; format: functional, cell-based; details: Homo sapiens; remark: listed apart in the source
HEK293 [12] = experiment: NOD1 signaling inhibitors, primary screen, cell-based, luminescence, uHTS (AID 1578); format: functional; details: Homo sapiens
[13] = C. albicans growth with fluconazole, confirmation, fluorescence, retest (AID 2467); format: functional, cell-based
Beta-galactosidase = Beta-galactosidase (Escherichia coli, UniProt Q8VNN2); format: functional
Beta-galactosidase, sequence (Q8VNN2 whole entry): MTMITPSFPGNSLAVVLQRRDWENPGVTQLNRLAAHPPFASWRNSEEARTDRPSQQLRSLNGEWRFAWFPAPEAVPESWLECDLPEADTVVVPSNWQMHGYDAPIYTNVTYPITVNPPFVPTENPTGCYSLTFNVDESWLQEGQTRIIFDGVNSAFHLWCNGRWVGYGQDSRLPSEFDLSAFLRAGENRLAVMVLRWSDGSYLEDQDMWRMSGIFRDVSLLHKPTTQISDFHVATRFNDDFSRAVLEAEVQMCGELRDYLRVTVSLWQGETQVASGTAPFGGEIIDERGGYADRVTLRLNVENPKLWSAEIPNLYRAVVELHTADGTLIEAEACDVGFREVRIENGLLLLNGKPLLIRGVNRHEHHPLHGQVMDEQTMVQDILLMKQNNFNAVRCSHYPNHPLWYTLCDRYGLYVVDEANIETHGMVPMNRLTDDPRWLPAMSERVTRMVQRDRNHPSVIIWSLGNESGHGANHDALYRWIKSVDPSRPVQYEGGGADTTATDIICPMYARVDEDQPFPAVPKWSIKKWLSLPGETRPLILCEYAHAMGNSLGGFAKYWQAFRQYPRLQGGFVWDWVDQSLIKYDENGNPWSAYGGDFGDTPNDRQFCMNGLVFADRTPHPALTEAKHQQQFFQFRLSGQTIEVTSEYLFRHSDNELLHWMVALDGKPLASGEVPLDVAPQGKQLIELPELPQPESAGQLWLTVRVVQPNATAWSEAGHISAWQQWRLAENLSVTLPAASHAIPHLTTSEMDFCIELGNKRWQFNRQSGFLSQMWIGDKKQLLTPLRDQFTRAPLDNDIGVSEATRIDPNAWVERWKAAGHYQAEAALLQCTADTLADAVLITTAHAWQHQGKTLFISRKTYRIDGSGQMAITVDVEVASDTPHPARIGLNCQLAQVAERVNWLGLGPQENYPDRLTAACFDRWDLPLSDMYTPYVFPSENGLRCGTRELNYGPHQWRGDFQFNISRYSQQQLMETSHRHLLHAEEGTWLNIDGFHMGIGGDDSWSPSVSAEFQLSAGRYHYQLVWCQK

BJ [14] = experiment: cytotoxicity toward BJ-TERT fibroblasts, dose response, cell-based, RAS-independent, luminescence (AID 1933); format: functional; details: Homo sapiens
[15] = target: T1, Serine/threonine-protein phosphatase (Candida dubliniensis (strain CD36 / CBS 7987 / NCPF 3949 / NRRLY-17841) (Yeast), UniProt B9W6M3); experiment: calcineurin pathway inhibitors in yeast reporter, dose response, S. cerevisiae, CDRE-lacZ, luminescence, secondary (AID 2388); format: functional, cell-based;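 note: yeast reporter cells carrying a calcineurin-responsive lacZ construct stimulated with calcium chloride; luminescent beta-galactosidase reporter signal in whole cells rather than isolated phosphatase activity; potency for inhibition where a drop in reporter signal means calcineurin blockade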
T1 sequence (B9W6M3 whole entry): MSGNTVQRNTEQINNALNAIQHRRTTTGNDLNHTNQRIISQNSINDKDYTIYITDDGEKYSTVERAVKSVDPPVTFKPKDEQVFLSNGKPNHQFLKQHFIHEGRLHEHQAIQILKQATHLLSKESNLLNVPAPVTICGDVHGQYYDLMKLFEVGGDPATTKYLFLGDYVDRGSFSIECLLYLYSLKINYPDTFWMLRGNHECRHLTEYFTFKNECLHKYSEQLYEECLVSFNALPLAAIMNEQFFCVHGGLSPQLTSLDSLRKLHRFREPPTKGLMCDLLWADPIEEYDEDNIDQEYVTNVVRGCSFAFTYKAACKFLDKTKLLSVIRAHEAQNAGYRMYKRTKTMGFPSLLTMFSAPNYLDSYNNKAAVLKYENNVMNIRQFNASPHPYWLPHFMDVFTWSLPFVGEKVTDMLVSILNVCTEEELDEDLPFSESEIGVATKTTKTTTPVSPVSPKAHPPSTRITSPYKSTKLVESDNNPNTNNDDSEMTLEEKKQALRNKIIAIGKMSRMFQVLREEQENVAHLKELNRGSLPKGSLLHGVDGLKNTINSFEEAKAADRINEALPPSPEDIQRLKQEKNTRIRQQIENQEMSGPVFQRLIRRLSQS

INS1 = experiment: beta cell apoptosis inhibitors, cytokine rescue, dose response, luminescence, retest (AID 449756); format: functional, cell-based; details: Rattus norvegicus;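 note: cell death triggered by IL-1 beta plus TNF-alpha plus IFN-gamma mixture; protective hits raise ATP signal compared with cytokine alone wells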
[16] = target: Nucleotide-binding oligomerization domain-containing protein 2 (Homo sapiens, UniProt Q9HC29); experiment: NOD2 signaling inhibitors, cell-based, luminescence, uHTS, HEK293 (AID 1566); format: functional
Nucleotide-binding oligomerization domain-containing protein 2, sequence (Q9HC29 whole entry, the tested form may be a part): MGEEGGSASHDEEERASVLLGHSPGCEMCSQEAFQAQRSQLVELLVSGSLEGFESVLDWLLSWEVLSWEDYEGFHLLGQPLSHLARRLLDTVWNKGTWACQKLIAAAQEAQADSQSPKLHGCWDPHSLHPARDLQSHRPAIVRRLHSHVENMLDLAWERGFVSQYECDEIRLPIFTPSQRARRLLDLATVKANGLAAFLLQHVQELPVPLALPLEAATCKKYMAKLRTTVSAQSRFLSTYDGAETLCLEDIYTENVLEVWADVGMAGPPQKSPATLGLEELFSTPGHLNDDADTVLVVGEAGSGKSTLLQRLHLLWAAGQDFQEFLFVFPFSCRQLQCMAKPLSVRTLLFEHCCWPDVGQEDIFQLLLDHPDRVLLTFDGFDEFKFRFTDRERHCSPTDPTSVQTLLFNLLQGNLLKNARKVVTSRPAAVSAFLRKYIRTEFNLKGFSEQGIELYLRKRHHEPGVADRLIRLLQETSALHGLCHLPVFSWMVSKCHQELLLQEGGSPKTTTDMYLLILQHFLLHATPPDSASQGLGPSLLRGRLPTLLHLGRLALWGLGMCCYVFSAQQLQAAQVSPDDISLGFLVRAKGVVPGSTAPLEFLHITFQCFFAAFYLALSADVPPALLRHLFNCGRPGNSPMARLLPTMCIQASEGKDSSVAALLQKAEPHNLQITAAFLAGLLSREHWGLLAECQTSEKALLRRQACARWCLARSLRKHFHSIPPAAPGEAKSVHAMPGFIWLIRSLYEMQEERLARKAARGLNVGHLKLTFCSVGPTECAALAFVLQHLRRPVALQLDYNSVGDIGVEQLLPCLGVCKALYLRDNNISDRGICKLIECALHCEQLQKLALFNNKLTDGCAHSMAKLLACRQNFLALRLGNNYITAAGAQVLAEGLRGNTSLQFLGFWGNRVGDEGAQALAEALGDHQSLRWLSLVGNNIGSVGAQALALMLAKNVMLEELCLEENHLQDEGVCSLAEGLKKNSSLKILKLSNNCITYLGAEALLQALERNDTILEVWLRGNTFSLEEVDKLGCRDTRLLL

[17] = target: T2, Kappa-type opioid receptor (Homo sapiens, UniProt P41145); format: functional
T2 sequence (P41145 whole entry): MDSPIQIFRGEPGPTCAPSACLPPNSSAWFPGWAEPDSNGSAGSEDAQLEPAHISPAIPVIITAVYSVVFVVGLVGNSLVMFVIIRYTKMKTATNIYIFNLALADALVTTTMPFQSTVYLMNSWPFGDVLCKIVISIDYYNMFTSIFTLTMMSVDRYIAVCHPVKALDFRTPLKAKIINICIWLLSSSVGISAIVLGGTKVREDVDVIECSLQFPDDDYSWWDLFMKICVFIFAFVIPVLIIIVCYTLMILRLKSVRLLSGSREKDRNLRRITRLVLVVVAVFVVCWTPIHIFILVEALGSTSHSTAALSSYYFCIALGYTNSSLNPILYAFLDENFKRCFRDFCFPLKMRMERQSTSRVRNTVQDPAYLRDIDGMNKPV

[18] = target: T2, Kappa-type opioid receptor; format: functional; remark: listed apart in the source
[19] = target: T3, Sentrin-specific protease 8 (Homo sapiens, UniProt Q96LD8); format: functional;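 note: luminescence read-out of SENP8 inhibition, dose-response confirmation following an ultra-high-throughput screen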
T3 sequence (Q96LD8 whole entry): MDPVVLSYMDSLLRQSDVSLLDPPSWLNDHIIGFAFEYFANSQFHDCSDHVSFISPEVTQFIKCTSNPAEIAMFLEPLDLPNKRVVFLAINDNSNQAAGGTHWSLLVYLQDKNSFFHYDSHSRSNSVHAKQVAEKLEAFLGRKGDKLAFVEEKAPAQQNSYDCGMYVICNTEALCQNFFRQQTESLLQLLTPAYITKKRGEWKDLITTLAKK

[20] = target: T4, Sentrin-specific protease 6 (Homo sapiens, UniProt Q9GZR1); format: functional
T4 sequence (Q9GZR1 whole entry): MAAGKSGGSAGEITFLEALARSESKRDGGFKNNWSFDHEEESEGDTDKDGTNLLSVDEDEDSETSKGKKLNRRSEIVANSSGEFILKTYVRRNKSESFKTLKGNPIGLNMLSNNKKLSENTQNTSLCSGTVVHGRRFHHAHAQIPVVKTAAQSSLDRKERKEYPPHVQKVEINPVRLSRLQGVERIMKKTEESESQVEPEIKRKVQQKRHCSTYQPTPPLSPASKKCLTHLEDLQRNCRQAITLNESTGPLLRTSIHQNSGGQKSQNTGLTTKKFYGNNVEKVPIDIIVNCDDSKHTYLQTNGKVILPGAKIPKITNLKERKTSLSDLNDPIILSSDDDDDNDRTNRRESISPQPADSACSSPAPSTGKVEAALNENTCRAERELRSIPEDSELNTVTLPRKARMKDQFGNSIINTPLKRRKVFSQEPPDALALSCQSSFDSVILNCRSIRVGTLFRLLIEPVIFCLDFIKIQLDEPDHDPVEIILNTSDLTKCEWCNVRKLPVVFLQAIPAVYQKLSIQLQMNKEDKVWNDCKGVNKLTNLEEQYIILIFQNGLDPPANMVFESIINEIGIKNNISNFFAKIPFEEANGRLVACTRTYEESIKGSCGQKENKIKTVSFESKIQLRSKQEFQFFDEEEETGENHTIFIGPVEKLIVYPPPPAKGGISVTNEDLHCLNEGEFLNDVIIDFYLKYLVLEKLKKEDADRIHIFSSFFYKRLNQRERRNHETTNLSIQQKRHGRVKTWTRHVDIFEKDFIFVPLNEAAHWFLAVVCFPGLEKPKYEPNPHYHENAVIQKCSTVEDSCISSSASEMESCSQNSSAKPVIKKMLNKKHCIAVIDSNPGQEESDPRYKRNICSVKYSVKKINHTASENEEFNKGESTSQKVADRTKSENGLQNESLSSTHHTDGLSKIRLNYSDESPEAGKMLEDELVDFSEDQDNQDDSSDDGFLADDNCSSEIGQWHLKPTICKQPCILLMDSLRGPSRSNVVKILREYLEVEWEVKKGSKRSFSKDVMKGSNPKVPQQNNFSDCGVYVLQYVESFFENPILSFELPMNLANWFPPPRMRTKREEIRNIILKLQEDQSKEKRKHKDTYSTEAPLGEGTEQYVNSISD

[21] = target: T5, Sentrin-specific protease 7 (Homo sapiens, UniProt Q9BQF6); format: functional;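 note: Luminescence-based dose-response confirmation of ultra-high-throughput screening hits, measuring inhibition of SENP7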
T5 sequence (Q9BQF6 whole entry): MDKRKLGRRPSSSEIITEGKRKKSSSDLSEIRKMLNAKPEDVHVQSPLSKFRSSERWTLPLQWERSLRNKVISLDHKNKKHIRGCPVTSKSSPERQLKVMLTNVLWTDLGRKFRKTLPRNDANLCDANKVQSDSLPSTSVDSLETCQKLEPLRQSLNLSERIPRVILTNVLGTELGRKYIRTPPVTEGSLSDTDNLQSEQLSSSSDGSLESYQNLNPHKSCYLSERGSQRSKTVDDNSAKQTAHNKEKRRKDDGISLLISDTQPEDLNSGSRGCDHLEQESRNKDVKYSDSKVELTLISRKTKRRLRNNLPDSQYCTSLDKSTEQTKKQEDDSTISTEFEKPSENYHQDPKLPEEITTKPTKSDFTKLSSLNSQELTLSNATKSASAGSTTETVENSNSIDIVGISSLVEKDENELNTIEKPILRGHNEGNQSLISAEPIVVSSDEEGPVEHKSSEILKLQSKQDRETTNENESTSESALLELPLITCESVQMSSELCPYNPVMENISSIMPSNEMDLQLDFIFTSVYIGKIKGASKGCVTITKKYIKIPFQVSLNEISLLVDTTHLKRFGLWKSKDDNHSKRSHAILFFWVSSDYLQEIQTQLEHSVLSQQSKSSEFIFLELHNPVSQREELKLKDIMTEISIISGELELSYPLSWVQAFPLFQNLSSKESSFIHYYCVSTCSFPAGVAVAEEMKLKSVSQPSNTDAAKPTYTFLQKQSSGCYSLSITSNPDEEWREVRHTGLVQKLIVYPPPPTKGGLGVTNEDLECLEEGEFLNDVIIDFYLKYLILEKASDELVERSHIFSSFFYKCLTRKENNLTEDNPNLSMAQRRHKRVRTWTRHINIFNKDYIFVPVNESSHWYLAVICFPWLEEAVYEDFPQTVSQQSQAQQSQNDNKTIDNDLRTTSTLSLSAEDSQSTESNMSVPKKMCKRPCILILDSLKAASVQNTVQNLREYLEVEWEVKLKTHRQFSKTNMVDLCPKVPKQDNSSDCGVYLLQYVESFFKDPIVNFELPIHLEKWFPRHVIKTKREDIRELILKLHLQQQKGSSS

Caspase-3 [22] = target: T6, Caspase-3 (Homo sapiens, UniProt P42574); format: functional
T6 sequence (P42574 whole entry): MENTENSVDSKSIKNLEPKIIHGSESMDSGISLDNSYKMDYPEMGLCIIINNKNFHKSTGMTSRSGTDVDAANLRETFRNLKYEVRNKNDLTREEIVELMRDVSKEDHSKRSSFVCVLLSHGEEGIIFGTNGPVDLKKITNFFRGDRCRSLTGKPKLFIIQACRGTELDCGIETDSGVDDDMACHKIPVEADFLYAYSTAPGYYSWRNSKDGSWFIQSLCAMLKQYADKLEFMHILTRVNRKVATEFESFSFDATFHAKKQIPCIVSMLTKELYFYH

Caspase-3 [23] = target: T6, Caspase-3; experiment: SAR Analysis of small molecule inhibitors of Sentrin-specific proteases (SENPs) using a Caspase-3 Selectivity assay. [Related pubchem assays (depositor defined):AID2540, AID2599, AID434973, AID489001]; format: functional
[24] = target: T5, Sentrin-specific protease 7; experiment: SENP7 protease inhibitors, SAR follow-up, biochemical, luminescence (AID 504497); format: functional
[25] = target: T3, Sentrin-specific protease 8; experiment: SENP8 protease inhibitors, SAR follow-up, biochemical, luminescence (AID 504501); format: functional
[26] = target: T4, Sentrin-specific protease 6; experiment: SAR Analysis of small molecule inhibitors of Sentrin-specific protease 6 (SENP6) using a Luminescent assay. [Related pubchem assays (depositor defined):AID2582, AID2599]; format: functional
BJ [27] = experiment: cytotoxicity toward Ras-transformed BJeLR fibroblasts, dose response, cell-based, alamar blue fluorescence, cherrypicked samples (AID 2631); format: functional; details: Homo sapiens;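 note: confirmatory dose-response assay in RAS-dependent BJ fibroblasts engineered with TERT, LT and ST, with cytotoxicity read by fluorescence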

COc1cccc(N=Nc2ccc3cccnc3c2O)c1
active: AC50 [1] 5.71 µM | EC50 [2] 87.8 µM | EC50 [4] 4.9 µM | EC50 [9] 0.068 µM | EC50 (Streptococcus) 2.53 µM | EC50 [10] 10.5 µM | IC50 (HEK293 [11]) 5.21 µM | EC50 [13] 0.619 µM | EC50 (Beta-galactosidase) 22 µM | AC50 (INS1) 2.26 µM | IC50 [18] 5.92 µM
> 32 µM: IC50 [17]
inconclusive: EC50 (BJ [3]) 16.9 µM | EC50 (BJ [8]) 3.73 µM | EC50 (BJ [14]) 6.69 µM
inactive: IC50 (HEK293 [5]) > 20 µM | IC50 (HEK293 [6]) > 20 µM | IC50 (HEK293 [7]) 3.15 µM | EC50 (HEK293 [12]) > 20 µM | EC50 [15] > 180 µM | EC50 [16] > 20 µM

Cc1ccnc(Nc2nc(-c3ccc(F)cc3)cs2)c1
active: IC50 [19] 9.93 µM | IC50 [20] 38.4 µM | IC50 [21] 6.9 µM | IC50 (Caspase-3 [22]) 44.4 µM

Cn1cc(/C=C/C(=O)c2ccccc2)c2ccccc21
active: IC50 [19] 64.9 µM | IC50 [20] 7.58 µM | IC50 [21] 3.24 µM | IC50 (Caspase-3 [22]) 17.7 µM

CCOc1cc(C(=S)N2CCCC2)ccc1OCc1ccccc1F
inactive: IC50 (Caspase-3 [23]) > 99 µM | IC50 [24] > 99 µM | IC50 [25] > 99 µM | IC50 [26] > 99 µM

COc1ccc(-c2coc3cc4oc(=O)c5ccccc5c4cc23)cc1F
active: EC50 [10] 0.923 µM
inconclusive: EC50 (BJ [3]) 109 µM | EC50 (BJ [27]) 0.618 µM | EC50 (BJ [8]) 0.66 µM | EC50 (BJ [14]) 0.669 µM
